Laboratory results published in paper PMC6796659, “Topoisomerase IB poisons induce histone H2A phosphorylation as a response to DNA damage in Leishmania infantum” (International Journal for Parasitology: Drugs and Drug …, 2019).
Where two headings read alike, the source gives them in different places.

Key:
[1] = system: histone H2A (Thr128) in L. infantum promastigotes; assay: Histone H2A phosphorylation (γH2A) by Western blot; assay type: cell-based, Leishmania infantum; details: 10 μM, 0, 15, 60, 120 min
Experimental: To detect H2A phosphorylation by L. infantum promastigotes, parasites in exponential growing phase (5–6 x 10^6 cells/mL) were incubated at 26 °C with CPT derivatives and indenoisoquinolines at a final concentration in the supplemented 199 standard medium of 10 μM. Control cells were treated with the drug vehicle DMSO using concentrations below 0.1%. After 0, 15, 60 and 120-min incubations, promastigotes were harvested by centrifugation, washed twice in PBS and the pellet resuspended in lysis buffer containing 50 mM Tris (pH:7), 50 mM NaCl, 20 mM NaF, 0.1% Tween 20 and 2x protease inhibitors (PIERCE™ protease inhibitor mini tablets). Twenty micrograms of the different extracts were loaded onto 15% SDS-PAGE gels, electrophoresed and transferred to PVDF membranes (Immobilon-FL, Millipore) using a mini trans-blot electrophoretic transfer cell (Bio-Rad). Polyclonal γH2A antisera were used at a 1:2000 dilution and secondary goat anti-rabbit IgG IRDye680 (Li-Cor Biosciences) was used at a 1:15000 dilution. The peptide competition assay was done incubating the polyclonal γH2A antisera with 50 ng/mL of the appropriate peptide (with and without phosphorylation at Thr residue) in blocking buffer for 1 h at room temperature before blotting. Loading control was performed using a monoclonal α tubulin mouse antibody at 2 μg/mL (final concentration) and a goat anti-mouse IgG IRDye 800 (Li-Cor Biosciences) as secondary antibody. Bands were visualized in an Odissey® (Li-Cor Biosciences) infrared detection facility. The quantification of γH2A signal was done with Bio-Rad Quantity One Analysis Software.

[2] = system: iRFP L. infantum amastigotes infecting mouse splenocytes; details: ref Prada et al., 2013; cited from earlier work
[3] = system: iRFP L. infantum amastigotes infecting mouse splenocytes; assay: Antileishmanial activity on iRFP L. infantum amastigotes in ex vivo murine splenic explants; assay type: cell-based, Leishmania infantum; details: for SI (Selectivity Index): CC50 (splenocytes)/EC50 (amastigotes); for EC50: Leishmania infantum, Splenocyte, splenic-infecting iRFP L. infantum amastigotes, 72 h, 37 °C, read-out: EC50 (μM) L. infantum amastigotes
Experimental: Five-week BALB/c female mice infected intraperitoneally with 1.5 × 10^9 metacyclic iRFP L. infantum promastigotes were sacrificed to eviscerate their spleens, which were processed to obtain a suspension of primary splenocytes. Briefly, freshly dissected spleens were washed with cold phosphate-buffered saline (PBS), cut in small pieces and incubated for 20 min with 5 mL of 2 mg/mL collagenase D (Sigma) prepared in buffer (10 mM HEPES, pH 7.4, 150 mM NaCl, 5 mM KCl, 1 mM MgCl2 and 1.8 mM CaCl2). Then, the cell suspension was passed through a 100 μm cell strainer, harvested by centrifugation (500×g for 7 min at 4 °C), washed twice with PBS, and resuspended in RPMI medium (Gibco) supplemented with 10 mM HEPES, 1 mM sodium pyruvate, 1xRPMI 1640 vitamin mix, 10% (v/v) FBS, 50 U/mL penicillin and 50 μg/mL streptomycin. The cell suspension was cultured in 384-well optical bottom black plates (Thermo Scientific) at 37 °C under 5% CO2 atmosphere.
(§1) The antileishmanial activity of the compounds was tested both in promastigotes and in amastigotes infecting mouse splenocytes. For this purpose, 384-well optical bottom black plates (Thermo Scientific) were seeded either with free-living iRFP L. infantum promastigotes or with splenic explants infected with iRFP L. infantum amastigotes, which were incubated at 26 °C or 37 °C, respectively. The viability of both iRFP L. infantum stages was measured by recording the fluorescence emitted by viable cells at 708 nm in an Odyssey (Li-Cor) infrared imaging system after a 72-h period of incubation with different concentrations of the compounds. Dose-response curves were obtained by plotting the infrared fluorescence emission of viable parasites vs. different concentrations of testing compounds and were fitted by nonlinear analysis using the Sigma-Plot 10.0 statistical package. The reduction of infrared emission with respect to the negative control was used to determine the 50% effective concentration to kill the parasites (EC50). Both controls and treated groups were tested with DMSO (drug vehicle) concentrations below 0.1%. All compounds and controls were assayed in triplicate.

[4] = system: Leishmania topoisomerase IB (LTopIB); assay: Relaxation of supercoiled pSK DNA by recombinant LTopIB; assay type: biochemical
Experimental: (§2) Expression and purification of LTopIB and hTopIB were carried out according to a previously standardized protocol ([Villa et al., 2003]). The effect of indenoisoquinolines (compounds 1 to 20) on recombinant LTopIB and hTopIB was determined by measuring the relaxation of negatively supercoiled pBluescript-SK DNA plasmid (pSK). Briefly, in a total volume of 20 μL, 100 U of recombinant TopIB were incubated with 0.5 μg of pSK DNA in 10 mM Tris-HCl buffer (pH 7.5), 5 mM MgCl2, 5 mM dithiothreitol (DTT), 0.1 mM EDTA, […] bovine serum albumin, and 150 mM KCl. Different concentrations of indenoisoquinolines were also added. Following a 4-min incubation period at 25 °C, reactions were stopped with 1% (w/v) SDS, and incubated for one extra hour at 37 °C in the presence of 1 mg/mL proteinase K. Subsequently, samples were extracted with 1 vol phenol-chloroform mixture and were loaded on a 1% agarose gel containing 0.1 μg/mL ethidium bromide. The gel was run for 16 h at 4 V/cm, and the images were acquired using a G-Box system (Syngene, United Kingdom).

[5] = system: L. infantum promastigotes; assay: Cell cycle analysis by flow cytometry (propidium iodide); assay type: cell-based, Leishmania infantum; details: 1 μM single dose, 0, 8, 24, 48 h
Experimental: One million promastigotes untreated or treated with 1 μM of different indenoisoquinolines were harvested by centrifugation after 0, 8, 24 and 48 h exposure. Promastigotes were washed twice with PBS and fixed by 1 h incubation with 70% methanol at 4 °C. After incubation, cells were centrifuged, washed again with PBS and resuspended in 0.5 mL of citrate buffer (45 mM MgCl2, 20 mM MOPS, 30 mM sodium citrate, 0.1% Triton X-100, pH = 7). Finally, samples with RNAase (50 μg/mL) and propidium iodide ([…]) were incubated at 37 °C during 30 min and analyzed at 589 nm by flow cytometry (Cyan ADP Dako).

human Top IB (hTopIB) = molecular target: T1, human Top IB (hTopIB) (Homo sapiens, UniProt P11387); assay: Relaxation of supercoiled pSK DNA by recombinant hTopIB; assay type: biochemical
T1 construct: made in house
T1 sequence (P11387 1-765): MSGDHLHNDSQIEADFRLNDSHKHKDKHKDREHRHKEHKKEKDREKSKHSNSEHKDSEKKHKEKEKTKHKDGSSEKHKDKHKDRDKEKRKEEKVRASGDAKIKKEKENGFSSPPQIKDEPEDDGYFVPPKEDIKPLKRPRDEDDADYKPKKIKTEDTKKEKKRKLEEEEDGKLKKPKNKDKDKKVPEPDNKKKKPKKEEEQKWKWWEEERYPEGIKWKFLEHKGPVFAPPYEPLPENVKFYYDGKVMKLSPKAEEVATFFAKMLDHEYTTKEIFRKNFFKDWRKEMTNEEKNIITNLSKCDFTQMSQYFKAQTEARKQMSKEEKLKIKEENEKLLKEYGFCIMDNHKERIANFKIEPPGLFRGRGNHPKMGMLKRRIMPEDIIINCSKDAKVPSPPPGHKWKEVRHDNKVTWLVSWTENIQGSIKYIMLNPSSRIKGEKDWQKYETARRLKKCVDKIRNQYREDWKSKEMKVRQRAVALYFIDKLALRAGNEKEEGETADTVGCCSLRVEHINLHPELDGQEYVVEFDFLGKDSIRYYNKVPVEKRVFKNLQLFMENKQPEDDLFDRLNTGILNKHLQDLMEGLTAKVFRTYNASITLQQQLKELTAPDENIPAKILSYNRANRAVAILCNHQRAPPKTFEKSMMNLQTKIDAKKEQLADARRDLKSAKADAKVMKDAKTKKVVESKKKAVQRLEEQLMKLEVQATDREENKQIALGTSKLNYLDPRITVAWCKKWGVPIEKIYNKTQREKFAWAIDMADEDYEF
Experimental: as §2

[6] = Cytotoxicity on uninfected mouse splenocytes (Alamar Blue); assay type: cell-based; details: BALB/c, freshly isolated uninfected mouse splenocytes, non-infected mouse splenocytes, read-out: CC50 (μM) Murine Splenocytes
Experimental: Finally, the cytotoxicity of the compounds was assessed on freshly-isolated mouse splenocytes, which were obtained from uninfected BALB/c mice according to the protocol previously described. Viability of uninfected splenocytes was used to determine the cytotoxic concentration 50 (CC50) by means of the Alamar Blue staining method, according to manufacturer's recommendations (Invitrogen). Selectivity index (SI) for each compound was calculated as the ratio between the CC50 value obtained for splenic cells and the EC50 value for amastigotes.

[7] = system: iRFP L. infantum promastigotes; assay: Antileishmanial activity on free-living iRFP L. infantum promastigotes (infrared fluorescence viability); assay type: cell-based; details: Leishmania infantum, 72 h, 26 °C
Experimental: Histone phosphorylation assays were performed in promastigotes of L. infantum BCN 150 strain, whereas the antiparasitic activity of the compounds was assessed on the transgenic strain that constitutively expresses the irfp gene encoding the infrared iRFP protein (iRFP L. infantum strain) ([Calvo-Álvarez et al., 2015]), which is derived from L. infantum BCN 150. Both strains were grown at 26 °C in M-199 medium (Gibco) supplemented with 25 mM HEPES pH 7.2, 0.1 mM adenine, 0.0005% (w/v) hemin, 2 μg/mL biopterin, 0.0001% (w/v) biotin, 10% (v/v) heat-inactivated fetal bovine serum (FBS) and an antibiotic cocktail comprising 50 U/mL penicillin and 50 μg/mL streptomycin.
as §1

[8] = system: TopIB-DNA complexes in L. infantum promastigotes; assay: SDS/K-DNA precipitation (in situ cleavage complex formation); assay type: cell-based, Leishmania infantum; details: 30 min exposure, promastigotes
Experimental: In order to measure the fragmentation of DNA induced by Top poisons, L. infantum promastigotes, previously labeled with 0.5 mCi/mL [2–^14C] thymidine for 24 h, were exposed to different concentrations of indenoisoquinolines for 30 min, followed by precipitation with SDS/KCl, according to the method described previously ([Balaña-Fouce et al., 2012]). DNA fragmentation was determined as the percentage of total labeled DNA, and was calculated as follows: [(dpm in SDS/KCl drug - dpm in SDS/KCl solvent)/(dpm total incorporation)] x 100. Each experiment was run at least in triplicate.

| Structure (SMILES) | γH2A signal (H2A phosphorylation), Western blot [1] | SI (Selectivity Index) [3] | EC50 [3] | effect on cell cycle of promastigotes [5] | CC50 [6] | EC50 [7] | other results |
| --- | --- | --- | --- | --- | --- | --- | --- |
| CCc1c2c(nc3ccc(O)cc13)-c1cc3c(c(=O)n1C2)COC(=O)[C@]3(O)CC [SN38] | clear increase in the intensity of the 14-kDa band |  |  |  |  |  |  |
| CC[C@@]1(O)C(=O)OCc2c1cc1n(c2=O)Cc2cc3ccccc3nc2-1 [CPT, camptothecin] | clear increase in the intensity of the 14-kDa band |  |  |  |  |  | EC50 [2]: 0.03 µM |
| COc1cnc2c(c1)C(=O)c1c-2n(CCCN2CCOCC2)c(=O)c2cc(OC)c(OC)cc12 [Compound 18] |  | 29.3 | 0.13 ± 0.01 µM | arrested the cell cycle of promastigotes in S phase | 3.81 ± 0.51 µM | 0.53 ± 0.07 µM | LTopIB inhibition ([4]; Table 3): ++ (inhibition at 10 μM); hTopIB inhibition (human Top IB (hTopIB); Table 3): ++ (inhibition at 10 μM) |
| NCCCn1c2c(c3ccc([N+](=O)[O-])cc3c1=O)C(=O)c1cc(F)ccc1-2 [Compound 7] |  | 8.4 | 0.04 µM | arrested the cell cycle of promastigotes in S phase | 0.3 ± 0.07 µM | 1.28 ± 0.08 µM | LTopIB inhibition ([4]; Table 1): ++ (inhibition at 10 μM); hTopIB inhibition (human Top IB (hTopIB); Table 1): +++ (inhibition at 1 μM); maximum percentage of SDS/K-DNA precipitable complexes [8]: 33% |
| COc1ccc2c(c1)C(=O)c1c-2n(CCCn2ccnc2)c(=O)c2cc([N+](=O)[O-])ccc12 [Compound 12] |  | 33 | 0.01 µM | arrested the cell cycle of promastigotes in S phase | 0.33 ± 0.05 µM | > 10 µM | LTopIB inhibition ([4]; Table 2): ++ (inhibition at 10 μM); hTopIB inhibition (human Top IB (hTopIB); Table 2): +++ (inhibition at 1 μM) |
| CC[C@@]1(O)C(=O)OCc2c1cc1n(c2=O)Cc2cc3c(CN(C)C)c(O)ccc3nc2-1 [TPT, topotecan] | clear increase in the intensity of the 14-kDa band |  |  |  |  |  |  |
